US6861233B1, “Method of screening for triacyglycerol hydrolase inhibitors” (Glaxo Group Limited, priority 1999, dated 2005)

Key:
[1] = molecular target: T1, lipoprotein lipase (LPL) from bovine milk (Bos taurus, UniProt P11151); test: Effect of TGH inhibitors on lipoprotein lipase activity (radiolabelled trioleoylglycerol hydrolysis); type: biochemical; conditions: tested at 5 μM, incubated with the enzyme 15-min prior to substrate
T1 construct: lipoprotein lipase (LPL) from bovine milk; from tissue; host or cells: bovine milk
T1 sequence (P11151 29-478): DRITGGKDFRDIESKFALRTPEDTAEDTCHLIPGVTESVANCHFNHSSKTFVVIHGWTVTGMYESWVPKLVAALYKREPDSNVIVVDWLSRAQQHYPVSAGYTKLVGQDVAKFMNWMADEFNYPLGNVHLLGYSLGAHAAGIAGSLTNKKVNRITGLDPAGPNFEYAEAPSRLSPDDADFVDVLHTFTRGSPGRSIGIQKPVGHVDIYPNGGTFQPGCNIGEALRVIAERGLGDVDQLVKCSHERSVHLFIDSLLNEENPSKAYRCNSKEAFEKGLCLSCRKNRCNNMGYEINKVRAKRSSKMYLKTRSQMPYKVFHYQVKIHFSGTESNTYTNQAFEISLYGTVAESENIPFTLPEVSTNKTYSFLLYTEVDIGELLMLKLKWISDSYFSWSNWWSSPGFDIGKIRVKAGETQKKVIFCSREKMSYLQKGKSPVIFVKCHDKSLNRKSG
Description: In order to evaluate the specificity of TGH inhibitors toward TGH, test compound was tested on the enzymatic activity of lipoprotein lipase (LPL) from bovine milk. For this purpose radiolabelled trioleoylglycerol (250 μM, specific activity 1 mCi/mmole) was emulsified in mixture of 10% gum arabic by sonication. Long-chain triacylglycerol hydrolysis was assayed in a final volume of 200 μl containing LPL (1.5 μg/ml), Tris (50 mM), pH 8.0; MgCl2 CaCl2 (1 mM), and 150 mM NaCl with 1 mg/ml BSA as a fatty acid acceptor for 30 min at 37° C. The reaction was terminated with the addition of 3.25 ml of methanol/chloroform/heptane (3.85:3.42:2.73 by volume); 0.3 ml of 150 mM NaCl, lipid carriers (100 μg of unlabelled oleic acid), and 50 μl of 1 N NaOH. The mixture was vortexed and centrifuged. One ml of the upper phase (containing the fatty acids that have been hydrolyzed) was mixed with 10 ml of Cytoscint and counted. Test compound is incubated with the enzyme 15 minutes prior to the addition of the substrate.

[2] = molecular target: T2, human liver TGH (Homo sapiens, UniProt P23141); test: Effect of test agents on human liver TGH (4-methylumbelliferyl butyrate fluorogenic substrate); type: biochemical; conditions: purified human liver TGH 1.16 nM, 15-min pre-incubation, 4-MU-butyrate substrate; read-out: concentration which resulted in 50% inhibition of TGH
T2 construct: the enzyme from microsomal membranes of liver tissues was solubilised by the zwitterionic detergent; from tissue; host or cells: human liver (microsomal membranes)
T2 sequence (P23141 21-567 limits assumed): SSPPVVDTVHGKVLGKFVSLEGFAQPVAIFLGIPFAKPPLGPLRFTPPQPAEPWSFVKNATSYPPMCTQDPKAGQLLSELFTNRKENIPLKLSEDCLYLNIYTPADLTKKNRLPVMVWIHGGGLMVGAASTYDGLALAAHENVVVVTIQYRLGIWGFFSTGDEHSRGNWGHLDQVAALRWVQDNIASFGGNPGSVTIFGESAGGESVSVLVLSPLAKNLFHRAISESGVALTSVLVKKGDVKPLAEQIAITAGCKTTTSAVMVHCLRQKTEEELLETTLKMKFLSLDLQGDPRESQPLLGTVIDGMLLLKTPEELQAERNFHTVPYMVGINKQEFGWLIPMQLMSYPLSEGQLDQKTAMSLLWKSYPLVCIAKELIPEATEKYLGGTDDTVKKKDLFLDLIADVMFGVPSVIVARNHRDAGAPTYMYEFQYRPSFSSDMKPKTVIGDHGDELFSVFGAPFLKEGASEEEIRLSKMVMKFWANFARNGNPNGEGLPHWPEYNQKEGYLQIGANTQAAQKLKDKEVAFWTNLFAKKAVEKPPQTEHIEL
Description: Human liver TGH was purified according to Lehner and Verger's protocol described for the porcine liver TGH [13). Briefly, the enzyme from microsomal membranes of liver tissues was solubilised by the zwitterionic detergent 3-[(3 cholamidopropyl)dimethylammonio]-1-propanesulfonate (CHAPS) and was purified to apparent homogeneity by sequential chromatography on Q-sepharose and hydroxyapatite.
The enzymatic activity of TGH was evaluated with the fluorogenic substrate 4-methylumbelliferyl butyrate (4-MU-butyrate). Briefly, 10 μl of a solution of 25 mM of 4-MU-butyrate in tetrahydrofuran was injected in 2 ml of a buffer containing Tris (20 mM), pH 8.0, EDTA (1 mM) and taurodeoxycholate (300 μM). TGH activity was assayed at 1.16 nM in a final volume of 100 μl. The compound was dissolved in DMSO to be tested at various concentrations (from 1 nM to 2 μM) and was incubated with the enzyme 15-min prior to the addition of 20 μl of the substrate, which gives the starting point of the enzymatic reaction. […]
The basal level of fluorescence of the substrate was evaluated in a reaction mixture of 70 μl of buffer, 10 μl of DMSO (at the appropriate dilution) and 20 μl of substrate, and was subtracted from each other data. Rates of lipolysis were determined from continuous increase in fluorescence intensity at 460 nm (Excitation: 355 nm).

[3] = tested on: normal fed hamsters; test: Hypolipidemic activity of the TGH inhibitor in hamster; type: in vivo; conditions: oral, 25 mg/kg twice a day for 3 days
Description: Ten normal fed hamsters were randomly allocated into 2 groups. Animals from one group were orally gavaged with a test TGH inhibitor in DMSOI Labrafil (10/90%), 25 mg/kg, twice a day for 3 days while the animals from the other group were gavaged with the solvent (DMSOI/abrafil) twice a day for 3 days. The animals were sacrificed 4 hours following the last administration and the plasma lipids and lipoproteins were analyzed.
Total cholesterol (TC) and triglyceride (TG) levels in plasma were determined enzymatically with reagents from Bio Merieux. VLDL/LDL lipoprotein fractions were separated from the HDL lipoproteins by gradient centrifugation (d=1.063). Cholesterol in the VLDL/LDL as well as in the HDL fraction was also determined using the Bio Merieux kit. Apolipoprotein B-100 (Apo-B100) in the VLDL/LDL fraction was visualized by using SDS-PAGE under reducing conditions using resolving gels containing a 5% to 12% gradient.

[4] = 4 hours after last administration

## Cc1cccc(NN=C(C(=O)c2cccs2)C(=O)C(F)(F)F)c1 [4,4,4-trifluoro-2-[2-(3-methylphenyl)hydrazono]-1-(2-thienyl)butane-1,3-dione]
[1]
  effect on the enzymatic activity of LPL: did not affect
[2]
  IC50: 4 nM
[3]; [4]
  HDL cholesterol level: not significantly affected
  reduction in VLDL/LDL cholesterol (from the solvent treated animals): 40%
  reduction in the plasma TG concentration (from the solvent treated animals): −55%
[3]; VLDL/LDL fraction, SDS-PAGE
  ApoB100 decrease compared to control animals: −39%
